Test results as given in PMC10183817, “Inhibition of ATP synthase reverse activity restores energy homeostasis in mitochondrial pathologies” (The EMBO Journal, 2023).

How the values were obtained:
[1] = target: T1, mitochondrial ATP synthase (F1F0ATPase, Complex V, CV) (Mus musculus, UniProt P56480+Q03265); assay: acidification rate (Seahorse XF96), isolated heart mitochondria; format: biochemical; settings: ATP 20 mM; pH 7.2; oligomycin-sensitive
T1 construct: gene Atp5f1a; native fully assembled complex in isolated mouse heart mitochondria (frozen/thawed, or separated by blue native gel); with ATP synthase F(1) complex subunit gamma, mitochondrial; ATP synthase F(1) complex subunit delta, mitochondrial; ATP synthase F(1) complex subunit epsilon, mitochondrial; ATP synthase peripheral stalk subunit OSCP, mitochondrial; ATP synthase peripheral stalk subunit b, mitochondrial; ATP synthase peripheral stalk subunit d, mitochondrial; ATP synthase peripheral stalk subunit F6, mitochondrial; ATP synthase F(0) complex subunit a; ATP synthase F(0) complex subunit 8; ATP synthase F(0) complex subunit C1, mitochondrial

[2] = target: T2, purified bovine CV (Complex V, F-type ATP synthase) (Bos taurus, UniProt P00829+P19483); assay: in-gel ATP hydrolysis, blue native gel, purified CV; format: biochemical; settings: monomer, tetramer and oligomers, also F1 subcomplex; independent of the ATPIF1 amount
T2 construct: gene ATP5F1A; native purification from bovine heart; monomer (LMNG), tetramer (GDN) and oligomer preparations; with ATP synthase F(1) complex subunit gamma, mitochondrial; ATP synthase F(1) complex subunit delta, mitochondrial; ATP synthase F(1) complex subunit epsilon, mitochondrial; ATP synthase peripheral stalk subunit OSCP, mitochondrial; ATP synthase peripheral stalk subunit b, mitochondrial; ATP synthase peripheral stalk subunit d, mitochondrial; ATP synthase peripheral stalk subunit F6, mitochondrial; ATP synthase F(0) complex subunit a; ATP synthase F(0) complex subunit 8; ATP synthase F(0) complex subunit C1, mitochondrial

[3] = target: T1, mitochondrial ATP synthase (F1F0ATPase, Complex V, CV); assay: HyFS: acidification rate (Seahorse XF96), frozen heart mitochondria; format: biochemical; settings: EPI 100 nM; ATP 20 mM; pH 7.2; MAS buffer; partial inhibition, ATP synthesis not impaired
[4] = target: T2, purified bovine CV (Complex V, F-type ATP synthase); assay: competition with ATPIF1-GFP for CV tetramer, blue native gel fluorescence; settings: indirect binding read-out; prevents ATPIF1-GFP binding, does not displace bound ATPIF1; room temperature

SMILES | acidification rate (Seahorse XF96), isolated heart mitochondria [1] | in-gel ATP hydrolysis, blue native gel, purified CV [2] | % inhibition [3] | competition with ATPIF1-GFP for CV tetramer, blue native gel fluorescence [4]
Nc1ncnc2c1ncn2[C@@H]1O[C@H](COP(=O)(O)OP(=O)(O)OP(=O)(O)O)[C@@H](O)[C@H]1O [ATP] | addition of ATP resulted in a sharp increase in proton release that was oligomycin sensitive |  |  | 
Oc1cc(O)c2c(c1)O[C@@H](c1ccc(O)c(O)c1)[C@@H](O)C2 [EPI, (+)-Epicatechin] |  | We found that EPI inhibited ATP hydrolysis independently of the amount of ATPIF1 | ~ 30% | In both purified tetramers and isolated mitochondria, EPI prevented the binding of ATPIF1‐GFP
